Laboratory results reported in patent publication US20250311727A1, “SUBSTITUTED 2-AMINOAZINES AND SALTS THEREOF, AND USE THEREOF AS HERBICIDAL ACTIVE SUBSTANCES” (BAYER AKTIENGESELLSCHAFT, priority 2022, published 2025).

Assays:
Format in all cases: in vivo
Poa annua [1] = test: Pre-emergence herbicide efficacy at 320 g/ha, POAAN; details: scored visually after about 3 weeks vs untreated controls, 100% = plants have died
Outline: (§1)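 Compound formulated as wettable powder or emulsion concentrate is applied onto covered, sown sandy loam soil with 0.5% additive. Plants grow under greenhouse conditions, and after roughly 3 weeks weed control is rated by eye as a percentage relative to untreated pots.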

Matricaria inodora [2] = test: Pre-emergence herbicide efficacy at 80 g/ha, MATIN; details: scored visually after about 3 weeks vs untreated controls, 100% = plants have died
Source text: (§2) Unwanted plants/weeds: • ABUTH: Abutilon theophrasti • ALOMY: Alopecurus myosuroides • AMARE: Amaranthus retroflexus • DIGSA: Digitaria sanguinalis • ECHCG: Echinochloa crus-galli • KCHSC: Kochia scoparia • LOLRI: Lolium rigidum • MATIN: Matricaria inodora • POAAN: Poa annua • POLCO: Polygonum convolvulus • SETVI: Setaria viridis • STEME: Stellaria media • VERPE: Veronica persica • VIOTR: Viola tricolor A. Post-Emergence Herbicidal Efficacy at 320 g/ha
(§3) Seeds of monocotyledonous and dicotyledonous weed plants and crop plants were placed in plastic or organic planting pots and covered with soil. The compounds of the invention, formulated in the form of wettable powders (WP) or as emulsion concentrates (EC), were then applied to the surface of the covering soil as aqueous suspension or emulsion with addition of 0.5% additive at a water application rate equivalent to 600 l/ha. After the treatment, the pots were placed in a greenhouse and kept under good growth conditions for the test plants. After about 3 weeks, the efficacy of the preparations was scored visually in comparison with untreated controls as percentages. For example, 100% activity=the plants have died, 0% activity=like control plants.
(§4) Tables D1 to D12 below show the effects of selected compounds of the general formula (I) according to Table 1 on various harmful plants and an application rate corresponding to 80 g/ha, which were obtained by the experimental procedure mentioned above.

Echinochloa crus-galli [3] = test: Pre-emergence herbicide efficacy at 320 g/ha, ECHCG; details: scored visually after about 3 weeks vs untreated controls, 100% = plants have died
Outline: as §1

Veronica persica [4] = test: Post-emergence herbicidal efficacy at 320 g/ha, VERPE; details: rated visually after about 3 weeks vs untreated controls, 100% = plants have died
Outline: (§5)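 Weeds grown from seed in sandy loam in the greenhouse were sprayed at the one-leaf stage, 2 to 3 weeks after sowing. WP or EC formulations were applied as aqueous spray with 0.5% additive at 600 L/ha. Injury was scored visually about 3 weeks later against untreated controls (0% = like control, 100% = dead).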

Setaria viridis [5] = test: Pre-emergence herbicide efficacy at 80 g/ha, SETVI
Outline: (§6)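 Compounds are applied to soil covering sown seeds (aqueous suspension or emulsion, 0.5% additive, 600 l/ha), before emergence. Pots stay in the greenhouse for about 3 weeks. Damage is then judged by eye as % of control, 100% meaning plant death.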

Stellaria media [6] = test: Post-emergence herbicidal efficacy at 320 g/ha, STEME; details: rated visually after about 3 weeks vs untreated controls, 100% = plants have died
Outline: as §5

Kochia scoparia [7] = test: Pre-emergence herbicide efficacy at 320 g/ha, KCHSC; details: scored visually after about 3 weeks vs untreated controls, 100% = plants have died
Outline: as §1

Amaranthus retroflexus [8] = test: Pre-emergence herbicide efficacy at 320 g/ha, AMARE; details: scored visually after about 3 weeks vs untreated controls, 100% = plants have died
Outline: as §1

Echinochloa crus-galli [9] = test: Post-emergence herbicidal efficacy at 320 g/ha, ECHCG; details: rated visually after about 3 weeks vs untreated controls, 100% = plants have died
Outline: as §5

Veronica persica [10] = test: Pre-emergence herbicide efficacy at 80 g/ha, VERPE
Source text: as §2, §3, §4

Abutilon theophrasti [11] = test: Post-emergence herbicidal efficacy at 320 g/ha, ABUTH; details: rated visually after about 3 weeks vs untreated controls, 100% = plants have died
Outline: as §5

Digitaria sanguinalis [12] = test: Post-emergence herbicidal efficacy at 320 g/ha, DIGSA; details: rated visually after about 3 weeks vs untreated controls, 100% = plants have died
Outline: as §5

Stellaria media [13] = test: Pre-emergence herbicide efficacy at 320 g/ha, STEME; details: scored visually after about 3 weeks vs untreated controls, 100% = plants have died
Outline: as §1

Echinochloa crus-galli [14] = test: Pre-emergence herbicide efficacy at 80 g/ha, ECHCG; details: scored visually after about 3 weeks vs untreated controls, 100% = plants have died
Source text: as §2, §3, §4

Digitaria sanguinalis [15] = test: Pre-emergence herbicide efficacy at 320 g/ha, DIGSA; details: scored visually after about 3 weeks vs untreated controls, 100% = plants have died
Outline: as §1

Kochia scoparia [16] = test: Post-emergence herbicidal efficacy at 320 g/ha, KCHSC; details: rated visually after about 3 weeks vs untreated controls, 100% = plants have died
Outline: as §5

Lolium rigidum = test: Pre-emergence herbicide efficacy at 320 g/ha, LOLRI; details: scored visually after about 3 weeks vs untreated controls, 100% = plants have died
Source text: as §2
(§7) Seeds of mono- and dicotyledonous weed plants were placed in plastic pots in sandy loam soil (doubly sown with one species each of mono- or dicotyledonous weed plants per pot) and covered with soil. The compounds of the invention, formulated in the form of wettable powders (WP) or as emulsion concentrates (EC), were then applied to the surface of the covering soil as aqueous suspension or emulsion with addition of 0.5% additive at a water application rate of 600 litres per hectare (converted). After the treatment, the pots were placed in a greenhouse and kept under good growth conditions for the test plants. After about 3 weeks, the efficacy of the preparations was scored visually in comparison with untreated controls as percentages.
(§8) For example, 100% activity=the plants have died, 0% activity=like control plants.
(§9) Tables C1 to C12 below show the effects of selected compounds of the general formula (I) according to Table 1 on various harmful plants and at an application rate corresponding to 320 g/ha, which were obtained by the trial procedure specified above.

Kochia scoparia [17] = test: Pre-emergence herbicide efficacy at 80 g/ha, KCHSC; details: scored visually after about 3 weeks vs untreated controls, 100% = plants have died
Source text: as §2, §3, §4

Setaria viridis [18] = test: Post-emergence herbicidal efficacy at 320 g/ha, SETVI; details: rated visually after about 3 weeks vs untreated controls, 100% = plants have died
Source text: as §2
Seeds of mono- and dicotyledonous weed plants were placed in plastic pots in sandy loam soil (doubly sown with in each case one species of mono- or dicotyledonous weed plants per pot), covered with soil and cultivated in a greenhouse under controlled growth conditions. 2 to 3 weeks after sowing, the test plants were treated at the one-leaf stage. The compounds of the invention, formulated in the form of wettable powders (WP) or as emulsion concentrates (EC), were applied to the green parts of the plants as aqueous suspension or emulsion with addition of 0.5% additive at a water application rate equivalent to 600 litres per hectare. After the test plants had been kept in the greenhouse under optimum growth conditions for about 3 weeks, the activity of the preparations was rated visually in comparison to untreated controls.
as §8
Tables A1 to A10 below show the effects of selected compounds of the general formula (I) according to Table 1 on various harmful plants and at an application rate corresponding to 320 g/ha, which were obtained by the trial procedure specified above.

Digitaria sanguinalis [19] = test: Pre-emergence herbicide efficacy at 80 g/ha, DIGSA; details: scored visually after about 3 weeks vs untreated controls, 100% = plants have died
Source text: as §2, §3, §4

Abutilon theophrasti [20] = test: Pre-emergence herbicide efficacy at 320 g/ha, ABUTH; details: scored visually after about 3 weeks vs untreated controls, 100% = plants have died
Outline: as §1

Polygonum convolvulus = test: Pre-emergence herbicide efficacy at 80 g/ha, POLCO; details: scored visually after about 3 weeks vs untreated controls, 100% = plants have died
Source text: as §2, §3, §4

Amaranthus retroflexus [21] = test: Pre-emergence herbicide efficacy at 80 g/ha, AMARE; details: scored visually after about 3 weeks vs untreated controls, 100% = plants have died
Outline: as §6

Matricaria inodora [22] = test: Pre-emergence herbicide efficacy at 320 g/ha, MATIN; details: scored visually after about 3 weeks vs untreated controls, 100% = plants have died
Source text: as §2, §7, §8, §9

Setaria viridis [23] = test: Pre-emergence herbicide efficacy at 320 g/ha, SETVI; details: scored visually after about 3 weeks vs untreated controls, 100% = plants have died
Outline: as §1

Veronica persica [24] = test: Pre-emergence herbicide efficacy at 320 g/ha, VERPE; details: scored visually after about 3 weeks vs untreated controls, 100% = plants have died
Outline: as §1

Viola tricolor [25] = test: Post-emergence herbicidal efficacy at 80 g/ha, VIOTR; details: rated visually after about 3 weeks vs untreated controls, 100% = plants have died
Source text: as §2
Seeds of monocotyledonous and dicotyledonous weeds and crop plants were placed in sandy loam in plastic or organic planting pots, covered with soil and cultivated in a greenhouse under controlled growth conditions. 2 to 3 weeks after sowing, the test plants were treated at the one-leaf stage. The compounds of the invention, formulated in the form of wettable powders (WP) or as emulsion concentrates (EC), were then sprayed onto the green parts of the plants as aqueous suspension or emulsion with addition of 0.5% additive at a water application rate of 600 l/ha (converted). After the test plants had been kept in the greenhouse under optimum growth conditions for about 3 weeks, the activity of the preparations was rated visually in comparison to untreated controls. For example, 100% activity=the plants have died, 0% activity=like control plants.
Tables B1 to B11 below show the effects of selected compounds of the general formula (I) according to Table 1 on various harmful plants and an application rate corresponding to 80 g/ha, which were obtained by the experimental procedure mentioned above.

Amaranthus retroflexus [26] = test: Post-emergence herbicidal efficacy at 320 g/ha, AMARE; details: rated visually after about 3 weeks vs untreated controls, 100% = plants have died
Outline: as §5

Viola tricolor [27] = test: Pre-emergence herbicide efficacy at 80 g/ha, VIOTR
Outline: as §6

Kochia scoparia [28] = test: Post-emergence herbicidal efficacy at 80 g/ha, KCHSC; details: rated visually after about 3 weeks vs untreated controls, 100% = plants have died
Outline: (§10)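 Post-emergence greenhouse test: one-leaf weeds sprayed with formulated compound (0.5% additive, 600 l/ha), visually rated about 3 weeks later against untreated controls.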

Poa annua [29] = test: Post-emergence herbicidal efficacy at 320 g/ha, POAAN; details: rated visually after about 3 weeks vs untreated controls, 100% = plants have died
Outline: as §5

Veronica persica [30] = test: Post-emergence herbicidal efficacy at 80 g/ha, VERPE; details: rated visually after about 3 weeks vs untreated controls, 100% = plants have died
Outline: as §10

Amaranthus retroflexus [31] = test: Post-emergence herbicidal efficacy at 80 g/ha, AMARE; details: rated visually after about 3 weeks vs untreated controls, 100% = plants have died
Outline: as §10

N#Cc1cccc(Nc2ncc(F)cn2)c1-n1cc(C(F)(F)F)cn1 [Example 1-60]
80%: Pre-emergence efficacy against VERPE (Veronica persica [10]) | Pre-emergence efficacy at 80 g/ha against ECHCG in % (Echinochloa crus-galli [14])
90%: Pre-emergence efficacy at 320 g/ha against ECHCG in % (Echinochloa crus-galli [3]) | Post-emergence efficacy at 320 g/ha against ABUTH in % (Abutilon theophrasti [11]) | Post-emergence efficacy at 320 g/ha against DIGSA in % (Digitaria sanguinalis [12]) | Pre-emergence efficacy at 320 g/ha against LOLRI in % (Lolium rigidum) | Post-emergence efficacy at 320 g/ha against SETVI in % (Setaria viridis [18]) | Pre-emergence efficacy at 320 g/ha against ABUTH in % (Abutilon theophrasti [20]) | Pre-emergence efficacy at 320 g/ha against SETVI in % (Setaria viridis [23]) | Post-emergence efficacy at 80 g/ha against VIOTR in % (Viola tricolor [25]) | Post-emergence efficacy at 80 g/ha against AMARE in % (Amaranthus retroflexus [31])
100%: Pre-emergence efficacy at 320 g/ha against POAAN in % (Poa annua [1]) | Pre-emergence efficacy at 80 g/ha against MATIN in % (Matricaria inodora [2]) | Post-emergence efficacy at 320 g/ha against VERPE in % (Veronica persica [4]) | Pre-emergence efficacy against SETVI (Setaria viridis [5]) | Post-emergence efficacy at 320 g/ha against STEME in % (Stellaria media [6]) | Pre-emergence efficacy at 320 g/ha against KCHSC in % (Kochia scoparia [7]) | Pre-emergence efficacy at 320 g/ha against AMARE in % (Amaranthus retroflexus [8]) | Post-emergence efficacy at 320 g/ha against ECHCG in % (Echinochloa crus-galli [9]) | Pre-emergence efficacy at 320 g/ha against STEME in % (Stellaria media [13]) | Pre-emergence efficacy at 320 g/ha against DIGSA in % (Digitaria sanguinalis [15]) | Post-emergence efficacy at 320 g/ha against KCHSC in % (Kochia scoparia [16]) | Pre-emergence efficacy at 80 g/ha against KCHSC in % (Kochia scoparia [17]) | Pre-emergence efficacy at 80 g/ha against DIGSA in % (Digitaria sanguinalis [19]) | Pre-emergence efficacy at 80 g/ha against POLCO in % (Polygonum convolvulus) | Pre-emergence efficacy at 80 g/ha against AMARE in % (Amaranthus retroflexus [21]) | Pre-emergence efficacy at 320 g/ha against MATIN in % (Matricaria inodora [22]) | Pre-emergence efficacy at 320 g/ha against VERPE in % (Veronica persica [24]) | Post-emergence efficacy at 320 g/ha against AMARE in % (Amaranthus retroflexus [26]) | Pre-emergence efficacy against VIOTR (Viola tricolor [27]) | Post-emergence efficacy at 80 g/ha against KCHSC in % (Kochia scoparia [28]) | Post-emergence efficacy at 320 g/ha against POAAN in % (Poa annua [29]) | Post-emergence efficacy at 80 g/ha against VERPE in % (Veronica persica [30])
